In patent US9604964B2, “Dihydropyrazole GPR40 modulators” (BRISTOL-MYERS SQUIBB COMPANY, priority 2012, dated 2017):

Target: human GPR40 (Homo sapiens, UniProt O14842)
Assay: FDSS-based intracellular calcium assay (Human GPR40 in vitro assay)
Assay type: cell-based
Set-up: 3xFLAG; expressed in transfected cells
Details: intracellular Ca2+ response, cells expressing GPR40; read-out: hGPR40 EC50
Protocol: FDSS-based Intracellular Calcium Assay
Compounds are dissolved in DMSO and diluted to desired concentrations with assay buffer and added to the cells as 3× solution (20 μL per well). Run fluorescence/luminescence reader FDSS (Hamamatsu) to read intracellular Ca^2+ response.

human GPR40, sequence (O14842 whole entry): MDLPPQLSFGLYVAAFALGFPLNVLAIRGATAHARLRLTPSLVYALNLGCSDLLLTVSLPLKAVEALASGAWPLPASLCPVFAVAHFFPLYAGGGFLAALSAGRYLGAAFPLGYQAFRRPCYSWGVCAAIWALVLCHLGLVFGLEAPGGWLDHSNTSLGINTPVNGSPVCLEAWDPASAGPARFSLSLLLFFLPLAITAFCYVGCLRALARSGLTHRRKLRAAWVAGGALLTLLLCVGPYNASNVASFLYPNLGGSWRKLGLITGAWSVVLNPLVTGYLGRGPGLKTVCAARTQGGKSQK

Row | EC50 | SMILES
1 | 4230 nM | COc1ccc(F)c(N2CCCC(Oc3ccc(N4N=C(C(F)(F)F)[C@@H](C)[C@@H]4CC(=O)O)cc3)C2)c1 (mixture of isomers) [Example B26, 2-((4S,5S)-1-(4-((1-(2-fluoro-5-methoxyphenyl)piperidin-3-yl)oxy)phenyl)-4-methyl-3-(trifluoromethyl)-4,5-dihydro-1H-pyrazol-5-yl)acetic acid]
2 | 3220 nM | CCOc1ccc(F)c(N2CCC(Cc3ccc(N4N=C(C(F)(F)F)[C@@H](C)[C@@H]4CC(=O)O)cc3)C(C)C2)c1 (single isomer, unassigned) [Example 3 (Isomer 1)]
3 | 471 nM | CCOc1ccc(F)c(N2CCC(Cc3ccc(N4N=C(C(F)(F)F)[C@@H](C)[C@@H]4CC(=O)O)cc3)C(C)C2)c1 (single isomer, unassigned) [Example 3 (Isomer 2)]
4 | 1140 nM | CCOc1ccc(F)c(N2CCC(Cc3ccc(N4N=C(C(F)(F)F)[C@@H](C)[C@@H]4CC(=O)O)cc3)C(C)C2)c1 (single isomer, unassigned) [Example 3 (Isomer 3)]
5 | 672 nM | CCOc1ccc(F)c(N2CCC(Cc3ccc(N4N=C(C(F)(F)F)[C@@H](C)[C@@H]4CC(=O)O)cc3)C(C)C2)c1 (single isomer, unassigned) [Example 3 (Isomer 4)]
6 | 352 nM | COCC1CN(c2cc(OC)ncc2Cl)CCC1Oc1ccc(N2N=C(C(F)(F)F)[C@@H](C)[C@@H]2CC(=O)O)cc1 (single isomer, unassigned) [Example B3, Isomer 1]
7 | 768 nM | COCC1CN(c2cc(OC)ncc2Cl)CCC1Oc1ccc(N2N=C(C(F)(F)F)[C@@H](C)[C@@H]2CC(=O)O)cc1 (single isomer, unassigned) [Example B3, Isomer 2]
8 | 2000 nM | COCC1CN(c2cc(OC)ncc2Cl)CCC1Oc1ccc(N2N=C(C(F)(F)F)[C@@H](C)[C@@H]2CC(=O)O)cc1 (single isomer, unassigned) [Example B3, Isomer 3]
9 | 389 nM | CCOc1ccc(F)c(N2CCC(Oc3ccc(N4N=C(C#N)C(C)C4CC(=O)O)cc3)CC2)c1 (single isomer, unassigned) [Example B5 Isomer 1, 2-(3-cyano-1-(4-((1-(5-ethoxy-2-fluorophenyl)piperidin-4-yl)oxy)phenyl)-4-methyl-4,5-dihydro-1H-pyrazol-5-yl)acetic acid]
10 | 4950 nM | CCOc1ccc(F)c(N2CCC(Oc3ccc(N4N=C(C#N)C(C)C4CC(=O)O)cc3)CC2)c1 (single isomer, unassigned) [Example B5, Isomer 2, 2-(3-cyano-1-(4-((1-(5-ethoxy-2-fluorophenyl)piperidin-4-yl)oxy)phenyl)-4-methyl-4,5-dihydro-1H-pyrazol-5-yl)acetic acid]
11 | 303 nM | COc1cc(N2CCC(Oc3ccc(N4N=C(C#N)C(C)C4CC(=O)O)cc3)C(C)C2)c(Cl)cn1 (single isomer, unassigned) [Example B6, Isomer 1, 2-(1-(4-((1-(5-chloro-2-methoxypyridin-4-yl)-3-methylpiperidin-4-yl)oxy)phenyl)-3-cyano-4-methyl-4,5-dihydro-1H-pyrazol-5-yl)acetic acid]
12 | 4850 nM | COc1cc(N2CCC(Oc3ccc(N4N=C(C#N)C(C)C4CC(=O)O)cc3)C(C)C2)c(Cl)cn1 (single isomer, unassigned) [Example B6, Isomer 2, 2-(1-(4-((1-(5-chloro-2-methoxypyridin-4-yl)-3-methylpiperidin-4-yl)oxy)phenyl)-3-cyano-4-methyl-4,5-dihydro-1H-pyrazol-5-yl)acetic acid]
13 | 394 nM | CCOc1ccc(F)c(N2CCC(Oc3ccc(N4N=C(C#N)C(C)C4CC(=O)O)cc3)C(C)C2)c1 (single isomer, unassigned) [Example B7, Isomer 1, 2-(3-Cyano-1-(4-((1-(5-ethoxy-2-fluorophenyl)-3-methylpiperidin-4-yl)oxy)phenyl)-4-methyl-4,5-dihydro-1H-pyrazol-5-yl)acetic acid]
14 | 5790 nM | CCOc1ccc(F)c(N2CCC(Oc3ccc(N4N=C(C#N)C(C)C4CC(=O)O)cc3)C(C)C2)c1 (single isomer, unassigned) [Example B7, Isomer 2, 2-(3-Cyano-1-(4-((1-(5-ethoxy-2-fluorophenyl)-3-methylpiperidin-4-yl)oxy)phenyl)-4-methyl-4,5-dihydro-1H-pyrazol-5-yl)acetic acid]
15 | 1040 nM | C[C@@H]1C(C(F)(F)F)=NN(c2ccc(OC3CCN(c4cc5c(cc4Cl)CCO5)CC3)cc2)[C@H]1CC(=O)O [Example 4, 2-((4S,5S)-1-(4-((1-(5-chloro-2,3-dihydrobenzofuran-6-yl)piperidin-4-yl)oxy)phenyl)-4-methyl-3-(trifluoromethyl)-4,5-dihydro-1H-pyrazol-5-yl)acetic acid]
16 | 5810 nM | CCCc1cnc(N2CCC(Oc3ccc(N4N=C(C(F)(F)F)[C@@H](C)[C@@H]4CC(=O)O)cc3)CC2)nc1 [Example 5, 2-((4S,5S)-4-methyl-1-(4-((1-(5-propylpyrimidin-2-yl)piperidin-4-yl)oxy)phenyl)-3-(trifluoromethyl)-4,5-dihydro-1H-pyrazol-5-yl)acetic acid]
17 | 7520 nM | C[C@@H]1C(C(F)(F)F)=NN(c2ccc(OC3CCN(c4ccc(C(F)(F)F)cn4)CC3)cc2)[C@H]1CC(=O)O [Example 6, 2-((4S,5S)-4-methyl-3-(trifluoromethyl)-1-(4-((1-(5-(trifluoromethyl)pyridin-2-yl)piperidin-4-yl)oxy)phenyl)-4,5-dihydro-1H-pyrazol-5-yl)acetic acid]
18 | 4480 nM | C[C@@H]1C(C(F)(F)F)=NN(c2ccc(OC3CCN(c4ncc(Cl)cn4)CC3)cc2)[C@H]1CC(=O)O [Example 7, 2-((4S,5S)-1-(4-((1-(5-chloropyrimidin-2-yl)piperidin-4-yl)oxy)phenyl)-4-methyl-3-(trifluoromethyl)-4,5-dihydro-1H-pyrazol-5-yl)acetic acid]
19 | 1080 nM | CC1CN(c2cc(OCC(F)(F)F)ccc2F)CCC1Oc1ccc(N2N=C(C(F)(F)F)[C@@H](C)[C@@H]2CC(=O)O)cc1 (stereo partly drawn) [Example 11, 2-((4S,5S)-1-(4-((1-(2-fluoro-5-(2,2,2-trifluoroethoxy)phenyl)-3-methylpiperidin-4-yl)oxy)phenyl)-4-methyl-3-(trifluoromethyl)-4,5-dihydro-1H-pyrazol-5-yl)acetic acid]

Row | SMILES | EC50
20 | CCOc1ccc(F)c(N2CCC(Oc3ccc(N4N=C(C(F)(F)F)[C@@H](C)[C@@H]4CC(=O)O)cc3)C(Cc3ccccc3)C2)c1 (single isomer, unassigned) [Example 28 (Isomer 1)] | 132 nM
21 | CCOc1ccc(F)c(N2CCC(Oc3ccc(N4N=C(C(F)(F)F)[C@@H](C)[C@@H]4CC(=O)O)cc3)C(OC)C2)c1 (single isomer, unassigned) [Example 31 (Isomer 2)] | 910 nM
22 | COc1cc(N2CCC(Oc3ccc(N4N=C(C(F)(F)F)[C@@H](C)[C@@H]4CC(=O)O)cn3)C(C)C2)c(Cl)cn1 (single isomer, unassigned) [Example 103 Isomer 1] | 533 nM
23 | COc1ccc(F)c(N2C3CCC2CC(Oc2ccc(N4N=C(C(F)(F)F)[C@@H](C)[C@@H]4CC(=O)O)cc2)C3)c1 (stereo partly drawn) [Example 2, 2-((4S,5S)-1-(4-((8-(2-fluoro-5-methoxyphenyl)-8-azabicyclo[3.2.1]octan-3-yl)oxy)phenyl)-4-methyl-3-(trifluoromethyl)-4,5-dihydro-1H-pyrazol-5-yl)acetic acid] | 644 nM
